Counter-ions that a name gives are not always drawn. Like-named read-outs stand apart in the source and are kept apart here.
Tests used:
[1] = Azelastine hydrate production-suppressing effect of each of the additives (azelastine hydrochloride solutions, pH 8); assay type: physicochemical; design: key to Effect Against Production of Azelastine Hydrates: absolutely no hydrate formation; .largecircle.: absolutely no hydrate formation; Δ: hydrate formation decreased compared to the produced water; X: no hydrate production-suppressing effect; conditions: for Effect Against Production of Azelastine Hydrates: 0.3 g azelastine hydrochloride in 100 ml, pH 8
Procedure: The azelastine hydrate production-suppressing effect was tested for each of the additives in azelastine hydro-chloride solutions. Each of the additives were added to 0.3 g of azelastine hydrochloride, the pH was adjusted to 8 with sodium hydroxide, and purified water was added to a total volume of 100 ml to determine whether or not azelastine hydrate crystals were produced. The identification of azelastine hydrate was carried out by filtering off the precipitates produced in the test solutions, drying them at room temperature, measuring thermal analysis (TG-DTA) (FIG. 1) and IR spectrum (azelastine hydrochloride reference standard: FIG. 2; azelastine hydrate: FIG. 3), and then comparing them to the standard.
Cases in which there was absolutely no hydrate formation are represented by [o], cases in which hydrate formation decreased compared to the produced water are represented by [Δ], and cases in which there was no hydrate production-suppressing effect are represented by [X].

[2] = cited from earlier work
[3] = cited from earlier work; for percutaneous absorbability: technique of SHO 63-278108
[4] = cited from earlier work; remark: listed apart in the source
[5] = dependence on pH; cited from earlier work

Compound: CC(=O)O [Acetic Acid, reference compound]
- suppression of the production of azelastine hydrate (in words) [1]: not exhibited
- Effect Against Production of Azelastine Hydrates ([1]; amount added 0.5%): X

Compound: CCCCCCCCCCCCCCCCCCCCCC(=O)O [Behenic Acid]
- Effect Against Production of Azelastine Hydrates ([1]; amount added 0.5%): .largecircle.

Compound: CCCC(=O)O [Butyric Acid, reference compound]
- suppression of the production of azelastine hydrate (in words) [1]: not exhibited
- Effect Against Production of Azelastine Hydrates ([1]; amount added 0.5%): X

Compound: CCCCCCCCCC(=O)O [Capric Acid]
- Effect Against Production of Azelastine Hydrates ([1]; amount added 0.5%): .largecircle.

Compound: CCCCCC(=O)O [Caproic Acid, reference compound]
- Effect Against Production of Azelastine Hydrates ([1]; amount added 0.5%): X

Compound: CCCCCCCC(=O)O [Caprylic Acid]
- Effect Against Production of Azelastine Hydrates ([1]; amount added 0.5%): Δ

Compound: CCCCCCCC/C=C\CCCCCCCCCCCC(=O)O [Erucid Acid]
- Effect Against Production of Azelastine Hydrates ([1]; amount added 0.5%): .largecircle.

Compound: CCO [Ethanol, reference compound]
- Effect Against Production of Azelastine Hydrates ([1]; amount added 30%): X

Compound: CC(C)CCCCCCCCCCCCCCC(=O)O [Isostearic Acid]
- Effect Against Production of Azelastine Hydrates ([1]; amount added 0.5%): .largecircle.

Compound: CCCCCCCCCCCC(=O)O [Lauric Acid]
- Effect Against Production of Azelastine Hydrates ([1]; amount added 0.5%): .largecircle.

Compound: CC/C=C\C/C=C\C/C=C\CCCCCCCC(=O)O [Linolenic Acid]
- Effect Against Production of Azelastine Hydrates ([1]; amount added 0.5%): .largecircle.

Compound: CCCCC/C=C\C/C=C\CCCCCCCC(=O)O [Linolic Acid]
- Effect Against Production of Azelastine Hydrates ([1]; amount added 0.5%): .largecircle.

Compound: CCCCCCCCCCCCCC(=O)O [Myristic Acid]
- Effect Against Production of Azelastine Hydrates ([1]; amount added 0.1%): Δ
- Effect Against Production of Azelastine Hydrates ([1]; amount added 0.3%): .largecircle.
- Effect Against Production of Azelastine Hydrates ([1]; amount added 0.5%): .largecircle.

Compound: CCCCCCCC/C=C\CCCCCCCC(=O)O [Oleic Acid]
- Effect Against Production of Azelastine Hydrates ([1]; amount added 0.1%): Δ
- Effect Against Production of Azelastine Hydrates ([1]; amount added 0.3%): .largecircle.
- Effect Against Production of Azelastine Hydrates ([1]; amount added 1% (1 or 1.0)): .largecircle.

Compound: CCCCCCCCCCCCCCCC(=O)O [Palmitic Acid]
- Effect Against Production of Azelastine Hydrates ([1]; amount added 0.5%): .largecircle.

Compound: CCCCCC/C=C\CCCCCCCC(=O)O [Palmitoleic Acid]
- Effect Against Production of Azelastine Hydrates ([1]; amount added 0.5%): .largecircle.

Compound: CCC(=O)O [Propionic Acid, reference compound]
- suppression of the production of azelastine hydrate (in words) [1]: not exhibited
- Effect Against Production of Azelastine Hydrates ([1]; amount added 0.3%): X

Compound: CC(O)CO (stereo not drawn) [Propylene glycol, reference compound]
- Effect Against Production of Azelastine Hydrates ([1]; amount added 30%): X

Compound: CCCCCCCCCCCCCCCCCC(=O)O [Stearic Acid]
- Effect Against Production of Azelastine Hydrates ([1]; amount added 0.5%): .largecircle.

Compound: CN1CCCC(n2nc(Cc3ccc(Cl)cc3)c3ccccc3c2=O)CC1 (stereo not drawn) [azelastine hydrate]
- solubility ([2]; in aqueous preparation, crystalline hydrates of non-dissociation type molecules): poor solubility

Compound: CN1CCCC(n2nc(Cc3ccc(Cl)cc3)c3ccccc3c2=O)CC1 (stereo not drawn) [azelastine hydrochloride]
- solubility in solvents ([2]; solvents which may be used in pharmaceutical compositions): low solubility
- increase in absorbability ([3]; technique of SHO 61-254532): no increase in absorbability was observed
- percutaneous absorbability ([3]; amount of azelastine hydrochloride high compared to the base): marked improvement
- percutaneous absorbability ([3]; amount of azelastine hydrochloride low compared to the base): poor percutaneous absorbability

Compound: CN1CCCC(n2nc(Cc3ccc(Cl)cc3)c3ccccc3c2=O)CC1 (stereo not drawn) [azelastine]
- acid dissociation constant (pKa) [4]: approximately 9.5

Compound: CN1[C@@H]2C[C@@H](OC(=O)[C@H](CO)c3ccccc3)C[C@H]1[C@@H]1O[C@@H]12 [scopolamine]
- percutaneous penetration speed [5]: in direct proportion to the pH

From patent US6117864A, “Methods employing stable preparation containing azelastine hydrochloride” (ASTA Medica Aktiengesellschaft, priority 1992, dated 2000)
